For the data set, the system named is CCRIS mutagenicity, Ames/micronucleus/aberration tests. As to the kind of experiment: CCRIS mutagenicity studies.
Setting [1] is: Test System: AMES SALMONELLA TYPHIMURIUM, Strain/Indicator: TA98, Metabolic Activation: NONE, Method: PREINCUBATION
Where [2] appears, read: Test System: AMES SALMONELLA TYPHIMURIUM, Strain/Indicator: TA100, Metabolic Activation: NONE, Method: PREINCUBATION
[3] abbreviates: Test System: AMES SALMONELLA TYPHIMURIUM, Strain/Indicator: TA98, Metabolic Activation: NONE, Method: STANDARD PLATE.
The mark [4] stands for this setting: Test System: AMES SALMONELLA TYPHIMURIUM, Strain/Indicator: TA100, Metabolic Activation: NONE, Method: STANDARD PLATE.

The source made the active and inactive calls. The rule behind the calls is not given here.

Regarding `Cc1c2ccccc2c(C)c2c3c(ccc12)[C@H](O)[C@@H](O)C=C3`, the mutagenic call runs as follows: (Test System: CHINESE HAMSTER V-79, Strain/Indicator: V-79/6-THIOGUANINE, Metabolic Activation: CELL-MEDIATED, Method: STANDARD PLATE) “active; positive”; (Test System: CHINESE HAMSTER V-79, Strain/Indicator: V-79/OUABAIN, Metabolic Activation: CELL-MEDIATED, Method: STANDARD PLATE) “active; positive”.

In the case of `Cc1c(N=[N+]([O-])c2cccc([N+](=O)[O-])c2C)cccc1[N+](=O)[O-]`, the mutagenic call is, setting by setting: under setting [1], “inactive; negative”; (Test System: AMES SALMONELLA TYPHIMURIUM, Strain/Indicator: TA98, Metabolic Activation: RAT, LIVER, S-9, PHENOBARBITAL AND 5,6-BENZOFLAVONE, Method: PREINCUBATION) “inactive; negative”; under setting [2], “inactive; negative”; (Test System: AMES SALMONELLA TYPHIMURIUM, Strain/Indicator: TA100, Metabolic Activation: RAT, LIVER, S-9, PHENOBARBITAL AND 5,6-BENZOFLAVONE, Method: PREINCUBATION) “inactive; negative”.

Turning to `c1ccc2c(c1)ccc1c3cccnc3ccc21`, the mutagenic call is, setting by setting: (Test System: AMES SALMONELLA TYPHIMURIUM, Strain/Indicator: TA98, Metabolic Activation: RAT, LIVER, S-9, AROCLOR 1254, Method: STANDARD PLATE) “active; positive”; (Test System: AMES SALMONELLA TYPHIMURIUM, Strain/Indicator: TA100, Metabolic Activation: RAT, LIVER, S-9, AROCLOR 1254, Method: STANDARD PLATE) “active; positive”.

`O=[N+]([O-])c1ccc2ccc3c4c(cc5ccc1c2c53)CCCC4`: the mutagenic call is “active; positive” under setting [3] and “inactive; negative” under setting [4].

Turning to `C#CC`, the mutagenic call runs as follows: (End Point: IN VITRO CHROMOSOMAL ABERRATIONS, Test System: CHL CELLS, Metabolic Activation: RAT, LIVER, S-9, SODIUM PHENOBARBITAL AND 5,6-BENZOFLAVONE) “inactive; negative; authors report equivocal results for structural changes at the highest”; (Test System: AMES SALMONELLA TYPHIMURIUM, Strain/Indicator: TA98, Metabolic Activation: NONE, Method: GAS EXPOSURE) “inactive; negative”; (Test System: AMES SALMONELLA TYPHIMURIUM, Strain/Indicator: TA98, Metabolic Activation: RAT LIVER S-9, PHENOBARBITAL AND BETA-NAPHTHOFLAVONE (40%), Method: GAS EXPOSURE) “inactive; negative”; (Test System: AMES SALMONELLA TYPHIMURIUM, Strain/Indicator: TA98, Metabolic Activation: RAT, LIVER, S-9, PHENOBARBITAL AND 5,6-BENZOFLAVONE, Method: GAS EXPOSURE) “inactive; negative”; (Test System: AMES SALMONELLA TYPHIMURIUM, Strain/Indicator: TA100, Metabolic Activation: NONE, Method: GAS EXPOSURE) “inactive; negative”; (Test System: AMES SALMONELLA TYPHIMURIUM, Strain/Indicator: TA100, Metabolic Activation: RAT LIVER S-9, PHENOBARBITAL AND BETA-NAPHTHOFLAVONE (40%), Method: GAS EXPOSURE) “inactive; negative”. Also, the mutagenic call (Test System: AMES SALMONELLA TYPHIMURIUM, Strain/Indicator: TA100, Metabolic Activation: RAT, LIVER, S-9, PHENOBARBITAL AND 5,6-BENZOFLAVONE, Method: GAS EXPOSURE) is “inactive; negative”; the mutagenic call (Test System: AMES SALMONELLA TYPHIMURIUM, Strain/Indicator: TA1535, Metabolic Activation: NONE, Method: GAS EXPOSURE) is “inactive; negative”; the mutagenic call (Test System: AMES SALMONELLA TYPHIMURIUM, Strain/Indicator: TA1535, Metabolic Activation: RAT LIVER S-9, PHENOBARBITAL AND BETA-NAPHTHOFLAVONE (40%), Method: GAS EXPOSURE) is “inactive; negative”; the mutagenic call (Test System: AMES SALMONELLA TYPHIMURIUM, Strain/Indicator: TA1535, Metabolic Activation: RAT, LIVER, S-9, PHENOBARBITAL AND 5,6-BENZOFLAVONE, Method: GAS EXPOSURE) was “inactive; negative”; the mutagenic call (Test System: AMES SALMONELLA TYPHIMURIUM, Strain/Indicator: TA1537, Metabolic Activation: NONE, Method: GAS EXPOSURE) was “inactive; negative”; the mutagenic call (Test System: AMES SALMONELLA TYPHIMURIUM, Strain/Indicator: TA1537, Metabolic Activation: RAT LIVER S-9, PHENOBARBITAL AND BETA-NAPHTHOFLAVONE (40%), Method: GAS EXPOSURE) is “inactive; negative”. Further, the mutagenic call is “inactive; negative” (Test System: AMES SALMONELLA TYPHIMURIUM, Strain/Indicator: TA1537, Metabolic Activation: RAT, LIVER, S-9, PHENOBARBITAL AND 5,6-BENZOFLAVONE, Method: GAS EXPOSURE); “active; positive” (Test System: E. COLI, Strain/Indicator: WP2 UVRA, Metabolic Activation: NONE, Method: GAS EXPOSURE); “active; positive” (Test System: E. COLI, Strain/Indicator: WP2 UVRA, Metabolic Activation: RAT, LIVER, S-9, PHENOBARBITAL AND 5,6-BENZOFLAVONE, Method: GAS EXPOSURE); “active; positive” (Test System: E.COLI, Strain/Indicator: WP2UVRA, Metabolic Activation: NONE, Method: GAS EXPOSURE); “active; positive” (Test System: E.COLI, Strain/Indicator: WP2UVRA, Metabolic Activation: RAT LIVER S-9, PHENOBARBITAL AND BETA-NAPHTHOFLAVONE (40%), Method: GAS EXPOSURE).

In the case of `N#Cc1cccc(/C=C/c2ccc(N)cc2)c1`, the mutagenic call runs as follows: (Test System: AMES SALMONELLA TYPHIMURIUM, Strain/Indicator: TA98(1,8-DNP6), Metabolic Activation: NONE, Method: STANDARD PLATE) “inactive; negative”; (Test System: AMES SALMONELLA TYPHIMURIUM, Strain/Indicator: TA98(1,8-DNP6), Metabolic Activation: S-9, Method: STANDARD PLATE) “active; positive”; under setting [3], “active; positive”; (Test System: AMES SALMONELLA TYPHIMURIUM, Strain/Indicator: TA98, Metabolic Activation: S-9, Method: STANDARD PLATE) “active; positive”; under setting [4], “inactive; negative”; (Test System: AMES SALMONELLA TYPHIMURIUM, Strain/Indicator: TA100, Metabolic Activation: S-9, Method: STANDARD PLATE) “active; positive”.

Regarding `CCN(CC)c1ccc2cc(-c3nc4ccccc4n3C)c(=O)oc2c1`, the mutagenic call was “inactive; negative” (Test System: AMES SALMONELLA TYPHIMURIUM, Strain/Indicator: TA1538, Metabolic Activation: NONE, Method: STANDARD PLATE) and “inactive; negative” (Test System: AMES SALMONELLA TYPHIMURIUM, Strain/Indicator: TA1538, Metabolic Activation: RAT, LIVER, S-9, AROCLOR 1254, Method: STANDARD PLATE).

As to `CNc1ccc2nccnc2c1C`, the mutagenic call was “inactive; negative” under setting [1]; “active; positive” (Test System: AMES SALMONELLA TYPHIMURIUM, Strain/Indicator: TA98, Metabolic Activation: RAT, LIVER, S-9, PCB, Method: PREINCUBATION); “inactive; negative” under setting [2].

Source of the values: PubChem BioAssay AID1259407 (Chemical Carcinogenesis Research Information System (CCRIS), 2018).
